According to ChEMBL document CHEMBL1141332, “Cytotoxic metabolites from an Indonesian sponge Lendenfeldia sp” (J Nat Prod, 2007):

How the values were obtained:
Type in all cases: functional
K562 = assay: Cytotoxicity against human K562 cells
MOLT-4 = assay: Cytotoxicity against human MOLT4 cells
SR = assay: Cytotoxicity against human SR cells
EKVX = assay: Cytotoxicity against human EKVX cells
HOP-62 = assay: Cytotoxicity against human HOP62 cells
HOP-92 = assay: Cytotoxicity against human HOP92 cells
NCI-H226 = assay: Cytotoxicity against human NCI-H226 cells
NCI-H23 = assay: Cytotoxicity against human NCI-H23 cells
NCI-H322M = assay: Cytotoxicity against human NCI-H322M cells
NCI-H460 = assay: Cytotoxicity against human NCI-H460 cells
NCI-H522 = assay: Cytotoxicity against human NCI-H522 cells
LOX IMVI = assay: Cytotoxicity against human LOX IMVI cells
HCT-116 = assay: Cytotoxicity against human HCT116 cells
HCT-15 = assay: Cytotoxicity against human HCT15 cells
HT-29 = assay: Cytotoxicity against human HT29 cells
KM12 = assay: Cytotoxicity against human KM12 cells
SW-620 = assay: Cytotoxicity against human SW620 cells
SF-268 = assay: Cytotoxicity against human SF268 cells
SF-295 = assay: Cytotoxicity against human SF295 cells
SF-539 = assay: Cytotoxicity against human SF539 cells
SNB-19 = assay: Cytotoxicity against human SNB19 cells; details: read-out: Log LC50 (the source's name) (converted)
SNB-75 = assay: Cytotoxicity against human SNB75 cells
U-251 = assay: Cytotoxicity against human U251cells
M14 = assay: Cytotoxicity against human M14 cells
SK-MEL-2 = assay: Cytotoxicity against human SK-MEL-2 cells
SK-MEL-28 = assay: Cytotoxicity against human SK-MEL-28 cells
SK-MEL-5 = assay: Cytotoxicity against human SK-MEL-5 cells
UACC-257 = assay: Cytotoxicity against human UACC257 cells
UACC-62 = assay: Cytotoxicity against human UACC62 cells
IGROV-1 = assay: Cytotoxicity against human IGROV1 cells
OVCAR-3 = assay: Cytotoxicity against human OVCAR-3 cells
OVCAR-4 = assay: Cytotoxicity against human OVCAR4 cells
OVCAR-8 = assay: Cytotoxicity against human OVCAR8 cells
786-0 = assay: Cytotoxicity against human 786-0 cells
A498 = assay: Cytotoxicity against human A498 cells
ACHN = assay: Cytotoxicity against human ACHN cells
RXF 393 = assay: Cytotoxicity against human RXF393 cells
TK-10 = assay: Cytotoxicity against human TK10 cells
UO-31 = assay: Cytotoxicity against human UO31 cells
PC-3 = assay: Cytotoxicity against human PC3 cells
MCF7 = assay: Cytotoxicity against human MCF7 cells
NCI/ADR-RES = assay: Cytotoxicity against human NCI/ADR-RES cells
MDA-MB-231 = assay: Cytotoxicity against human MDA-MB-231 cells
[1] = Cytotoxicity against human HS578T cells; details: Hs-578T
BT-549 = assay: Cytotoxicity against human BT549 cells
T47D = assay: Cytotoxicity against human T47D cells
[2] = read-out: Log LC50 (the source's name) (converted)

## CC(=O)O[C@@H]1C[C@H]2[C@]3(C)CC[C@H]4C(C)(C)CCC[C@]4(C)[C@H]3C[C@H](O)[C@]2(C)[C@@H](C=O)[C@@H]1C(C)=O [SCALARHERBACIN A]
K562
  GI50: 1740 nM
K562; [2]
  CC50: 7760 nM
K562; read-out: Log TGI (converted)
  TGI: 3720 nM
MOLT-4
  GI50: 324 nM
MOLT-4; [2]
  CC50: 4170 nM
MOLT-4; read-out: Log TGI (converted)
  TGI: 1120 nM
SR
  GI50: 282 nM
SR; read-out: Log TGI (converted)
  TGI: 1150 nM
EKVX
  GI50: 1320 nM
EKVX; [2]
  CC50: 5750 nM
EKVX; read-out: Log TGI (converted)
  TGI: 2750 nM
HOP-62
  GI50: 1070 nM
HOP-62; [2]
  CC50: 4790 nM
HOP-62; read-out: Log TGI (converted)
  TGI: 2240 nM
HOP-92
  GI50: 1320 nM
HOP-92; [2]
  CC50: 5500 nM
HOP-92; read-out: Log TGI (converted)
  TGI: 2690 nM
NCI-H226
  GI50: 1580 nM
NCI-H226; [2]
  CC50: 6760 nM
NCI-H226; read-out: Log TGI (converted)
  TGI: 3240 nM
NCI-H23
  GI50: 1660 nM
NCI-H23; [2]
  CC50: 6170 nM
NCI-H23; read-out: Log TGI (converted)
  TGI: 3240 nM
NCI-H322M
  GI50: 2140 nM
NCI-H322M; [2]
  CC50: 8710 nM
NCI-H322M; read-out: Log TGI (converted)
  TGI: 4270 nM
NCI-H460
  GI50: 1450 nM
NCI-H460; [2]
  CC50: 6760 nM
NCI-H460; read-out: Log TGI (converted)
  TGI: 3160 nM
NCI-H522
  GI50: 1860 nM
NCI-H522; [2]
  CC50: 7590 nM
NCI-H522; read-out: Log TGI (converted)
  TGI: 3720 nM
LOX IMVI
  GI50: 1000 nM
LOX IMVI; [2]
  CC50: 4680 nM
LOX IMVI; read-out: Log TGI (converted)
  TGI: 2140 nM
HCT-116
  GI50: 407 nM
HCT-116; [2]
  CC50: 3720 nM
HCT-116; read-out: Log TGI (converted)
  TGI: 1380 nM
HCT-15
  GI50: 759 nM
HCT-15; [2]
  CC50: 4790 nM
HCT-15; read-out: Log TGI (converted)
  TGI: 2040 nM
HT-29
  GI50: 309 nM
HT-29; [2]
  CC50: 3800 nM
HT-29; read-out: Log TGI (converted)
  TGI: 1100 nM
KM12
  GI50: 1480 nM
KM12; [2]
  CC50: 8510 nM
KM12; read-out: Log TGI (converted)
  TGI: 3550 nM
SW-620
  GI50: 214 nM
SW-620; [2]
  CC50: 1070 nM
SW-620; read-out: Log TGI (converted)
  TGI: 468 nM
SF-268
  GI50: 1450 nM
SF-268; [2]
  CC50: 7410 nM
SF-268; read-out: Log TGI (converted)
  TGI: 3240 nM
SF-295
  GI50: 1450 nM
SF-295; [2]
  CC50: 6170 nM
SF-295; read-out: Log TGI (converted)
  TGI: 3020 nM
SF-539
  GI50: 417 nM
SF-539; read-out: Log TGI (converted)
  TGI: 1580 nM
SNB-19
  CC50: 1660 nM
SNB-75
  GI50: 1580 nM
SNB-75; [2]
  CC50: 5500 nM
SNB-75; read-out: Log TGI (converted)
  TGI: 2950 nM
U-251
  GI50: 589 nM
U-251; [2]
  CC50: 4270 nM
U-251; read-out: Log TGI (converted)
  TGI: 1780 nM
M14
  GI50: 1450 nM
M14; [2]
  CC50: 5370 nM
M14; read-out: Log TGI (converted)
  TGI: 2750 nM
SK-MEL-2
  GI50: 2240 nM
SK-MEL-2; [2]
  CC50: 16600 nM
SK-MEL-2; read-out: Log TGI (converted)
  TGI: 4790 nM
SK-MEL-28
  GI50: 389 nM
SK-MEL-28; read-out: Log TGI (converted)
  TGI: 1290 nM
SK-MEL-5
  GI50: 1290 nM
SK-MEL-5; [2]
  CC50: 5250 nM
SK-MEL-5; read-out: Log TGI (converted)
  TGI: 2630 nM
UACC-257
  GI50: 2190 nM
UACC-257; [2]
  CC50: 27500 nM
UACC-257; read-out: Log TGI (converted)
  TGI: 5250 nM
UACC-62
  GI50: 1580 nM
UACC-62; [2]
  CC50: 5500 nM
UACC-62; read-out: Log TGI (converted)
  TGI: 2950 nM
IGROV-1
  GI50: 1950 nM
IGROV-1; [2]
  CC50: 8320 nM
IGROV-1; read-out: Log TGI (converted)
  TGI: 4070 nM
OVCAR-3
  GI50: 1120 nM
OVCAR-3; [2]
  CC50: 5500 nM
OVCAR-3; read-out: Log TGI (converted)
  TGI: 2510 nM
OVCAR-4
  GI50: 912 nM
OVCAR-4; [2]
  CC50: 6610 nM
OVCAR-4; read-out: Log TGI (converted)
  TGI: 2510 nM
OVCAR-8
  GI50: 676 nM
OVCAR-8; [2]
  CC50: 57500 nM
OVCAR-8; read-out: Log TGI (converted)
  TGI: 3890 nM
786-0
  GI50: 479 nM
786-0; [2]
  CC50: 4070 nM
786-0; read-out: Log TGI (converted)
  TGI: 1620 nM
A498
  GI50: 1820 nM
  LC50: 6760 nM
A498; read-out: Log TGI (converted)
  TGI: 3470 nM
ACHN
  GI50: 457 nM
  LC50: 3980 nM
ACHN; read-out: Log TGI (converted)
  TGI: 1550 nM
RXF 393
  GI50: 1150 nM
  LC50: 5370 nM
RXF 393; read-out: Log TGI (converted)
  TGI: 2510 nM
TK-10
  GI50: 1380 nM
  LC50: 6610 nM
TK-10; read-out: Log TGI (converted)
  TGI: 3020 nM
UO-31
  GI50: 1230 nM
UO-31; read-out: Log TGI (converted)
  TGI: 2570 nM
PC-3
  GI50: 741 nM
  LC50: 5250 nM
PC-3; read-out: Log TGI (converted)
  TGI: 2140 nM
MCF7
  GI50: 1820 nM
  LC50: 70800 nM
MCF7; read-out: Log TGI (converted)
  TGI: 6170 nM
NCI/ADR-RES
  GI50: 1660 nM
  LC50: 7080 nM
NCI/ADR-RES; read-out: Log TGI (converted)
  TGI: 3470 nM
MDA-MB-231
  GI50: 1480 nM
MDA-MB-231; read-out: Log TGI (converted)
  TGI: 2880 nM
[1]
  GI50: 1020 nM
  LC50: 8910 nM
[1]; read-out: Log TGI (converted)
  TGI: 3020 nM
BT-549
  GI50: 562 nM
  LC50: 4370 nM
BT-549; read-out: Log TGI (converted)
  TGI: 1780 nM
T47D
  GI50: 832 nM
  LC50: 25100 nM
T47D; read-out: Log TGI (converted)
  TGI: 3550 nM
